# In US20210308089A1, “METHODS OF TREATING AND/OR PREVENTING VIRAL INFECTIONS AND/OR DISEASES CAUSED BY VIRUSES IN A SUBJECT IN NEED THEREOF” (priority 2020, published 2021):
# Read-outs that look alike come from different tables or passages of the source.
# Test system: patients of the REDUCE-IT and earlier EPA placebo-controlled trials
# Type: in vivo, human
# Details: R-I
# [1] = Bilirubin shift: normal to high (Day 120)
# [2] = Bilirubin shift: normal to high (Day 360)
# [3] = Bilirubin shift: normal to high (Day 720)
# [4] = Bilirubin shift: normal to high (Day 1080)
# [5] = Bilirubin shift: normal to high (Day 1440)
# [6] = Bilirubin shift: normal to high (Day 1800)
smiles,measurement,setting,value
"CC/C=C\C/C=C\C/C=C\C/C=C\C/C=C\CCCC(=O)OCC [icosapent ethyl, eicosapentaenoic acid ethyl ester]",Risk Ratio (95% CI): ALP shift: normal to high (Day 1080),,0.395 (0.280 to 0.528) 4
same,Risk Ratio (95% CI): ALP shift: normal to high (Day 1440),,0.406 (0.287 to 0.575) 3
same,Risk Ratio (95% CI): ALP shift: normal to high (Day 1800),,0.439 (0.280 to 0.688) 3
same,Risk Ratio (95% CI): ALP shift: normal to low (Day 120),,3.341 (1.343 to 8.311) −4
same,Risk Ratio (95% CI): ALP shift: normal to low (Day 360),,2.394 (0.994 to 5.767) −3
same,Risk Ratio (95% CI): ALP shift: normal to low (Day 720),,2.783 (1.178 to 6.572) −4
same,Risk Ratio (95% CI): ALP shift: normal to low (Day 1080),,1.938 (0.831 to 4.522) −3
same,Risk Ratio (95% CI): ALP shift: normal to low (Day 1440),,1.199 (0.562 to 2.556) −1
same,Risk Ratio (95% CI): Albumin high (Day 120),,2.263 (1.388 to 3.689) −3
same,Risk Ratio (95% CI): Albumin high (Day 360),,1.901 (1.217 to 2.969) −3
same,Risk Ratio (95% CI): Albumin high (Day 720),,1.365 (0.975 to 1.911) −2
same,Risk Ratio (95% CI): Albumin high (Day 1080),,1.449 (0.993 to 2.115) −2
same,Risk Ratio (95% CI): Albumin high (Day 1440),,1.540 (1.001 to 2.369) −2
same,Risk Ratio (95% CI): Albumin shift: normal to high (Day 120),,3.055 (1.709 to 5.461) −4
same,Risk Ratio (95% CI): Albumin shift: normal to high (Day 360),,2.364 (1.388 to 4.027) −3
same,Risk Ratio (95% CI): Albumin shift: normal to high (Day 720),,1.475 (1.028 to 2.116) −2
same,Risk Ratio (95% CI): Albumin shift: normal to high (Day 1080),,1.257 (0.848 to 1.864) −2
same,Risk Ratio (95% CI): Albumin shift: normal to high (Day 1440),,1.531 (0.974 to 2.408) −2
same,Risk Ratio (95% CI): Bilirubin >1x ULN to 2x ULN,,3.157 (2.392 to 4.168) −4
same,Risk Ratio (95% CI): Bilirubin high (Day 120),,4.288 (2.849 to 6.454) −4
same,Risk Ratio (95% CI): Bilirubin high (Day 360),,3.263 (2.203 to 4.832) −4
same,Risk Ratio (95% CI): Bilirubin high (Day 720),,5.052 (3.174 to 8.039) −5
same,Risk Ratio (95% CI): Bilirubin high (Day 1080),,2.430 (1.683 to 3.508) −3
same,Risk Ratio (95% CI): Bilirubin high (Day 1440),,3.543 (2.243 to 5.596) −4
same,Risk Ratio (95% CI): Bilirubin high (Day 1800),,2.670 (1.569 to 4.545) −4
same,Risk Ratio (95% CI): Bilirubin shift: normal to high (Day 120),,5.106 (2.754 to 9.467) −5
same,Risk Ratio (95% CI): Bilirubin shift: normal to high (Day 360),,5.431 (2.773 to 10.636) −5
same,Risk Ratio (95% CI): Bilirubin shift: normal to high (Day 720),,4.803 (2.516 to 9.168) −4
same,Risk Ratio (95% CI): Bilirubin shift: normal to high (Day 1080),,2.235 (1.374 to 3.636) −3
same,Risk Ratio (95% CI): Bilirubin shift: normal to high (Day 1440),,5.445 (2.687 to 11.034) −5
same,Risk Ratio (95% CI): Bilirubin shift: normal to high (Day 1800),,2.556 (1.242 to 5.259) −4
same,Risk Ratio (95% CI): Calcium high (Day 120),,0.799 (0.517 to 1.236) 2
same,Risk Ratio (95% CI): Calcium high (Day 360),,0.915 (0.593 to 1.412) 1
same,Risk Ratio (95% CI): Calcium high (Day 720),,0.767 (0.491 to 1.200) 2
same,Risk Ratio (95% CI): Calcium low (Day 120),,1.399 (0.444 to 4.404) −2
same,Risk Ratio (95% CI): Calcium low (Day 360),,9.856 (1.262 to 76.953) −5
same,Risk Ratio (95% CI): Calcium low (Day 720),,2.911 (0.789 to 10.744) −4
same,Risk Ratio (95% CI): DBP High (≥100 mmHg),,1.121 (0.931 to 1.350) −1
same,Risk Ratio (95% CI): DBP High and Rose ≥10 mmHg,,1.092 (0.888 to 1.344) −1
same,Risk Ratio (95% CI): DBP Low (≤50 mmHG),,1.136 (0.732 to 1.763) −1
same,Risk Ratio (95% CI): DBP Low and dropped ≥10 mmHg,,1.030 (0.644 to 1.648) −1
same,Risk Ratio (95% CI): DBP dropped ≥10 mmHG,,1.087 (1.028 to 1.150) −1
same,Risk Ratio (95% CI): DBP rose ≥10 mmHg,,0.983 (0.927 to 1.041) 1
same,Risk Ratio (95% CI): High platelets (Day 720),,1.503 (1.007 to 2.242) −2
same,Risk Ratio (95% CI): Low platelets (Day 360),,0.366 (0.253 to 0.530) 4
same,Risk Ratio (95% CI): Low platelets (Day 720),,0.799 (0.608 to 1.051) 2
same,Risk Ratio (95% CI): Low platelets (Day 1080),,0.688 (0.512 to 0.925) 2
same,Risk Ratio (95% CI): Platelet count: PCS Low <100 × 10^3/uL,,0.442 (0.258 to 0.758) 3
same,Risk Ratio (95% CI): SBP High (≥160 mmHg),,0.912 (0.833 to 1.000) 1
same,Risk Ratio (95% CI): SBP High and rose ≥20 mmHg,,0.908 (0.805 to 1.023) 1
same,Risk Ratio (95% CI): SBP Low (≤90 mmHg),,1.819 (1.093 to 3.055) −3
same,Risk Ratio (95% CI): SBP dropped ≥20 mmHg,,1.117 (1.033 to 1.208) −1
same,Risk Ratio (95% CI): SBP low and dropped ≥20 mmHg,,1.422 (0.792 to 2.553) −2
same,Risk Ratio (95% CI): SBP rose ≥20 mmHg,,0.976 (0.912 to 1.045) 1
same,Risk Ratio (95% CI): Urate high (Day 120),,1.398 (1.246 to 1.568) −2
same,Risk Ratio (95% CI): Urate high (Day 360),,1.350 (1.197 to 1.523) −2
same,Risk Ratio (95% CI): Urate high (Day 720),,1.323 (1.162 to 1.506) −2
same,Risk Ratio (95% CI): Urate high (Day 1080),,1.102 (0.961 to 1.263) −1
same,Risk Ratio (95% CI): Urate high (Day 1440),,1.109 (0.956 to 1.286) −1
same,Risk Ratio (95% CI): Urate high (Day 1800),,1.084 (0.883 to 1.331) −1
same,Risk Ratio (95% CI): Urate shift: normal to high (Day 120),,1.689 (1.369 to 2.084) −3
same,Risk Ratio (95% CI): Urate shift: normal to high (Day 360),,1.674 (1.363 to 2.056) −3
same,Risk Ratio (95% CI): Urate shift: normal to high (Day 720),,1.513 (1.227 to 1.865) −2
same,Risk Ratio (95% CI): Urate shift: normal to high (Day 1080),,1.118 (0.910 to 1.374) −1
same,Risk Ratio (95% CI): Urate shift: normal to high (Day 1440),,1.079 (0.879 to 1.324) −1
same,Risk Ratio (95% CI): Urate shift: normal to high (Day 1800),,1.029 (0.782 to 1.355) −1
same,Risk Ratio (95% CI): Urate shift: normal to low (Day 120),,1.654 (0.396 to 6.915) −2
same,Risk Ratio (95% CI): Urate shift: normal to low (Day 360),,0.733 (0.255 to 2.110) 2
same,Risk Ratio (95% CI): Urate shift: normal to low (Day 720),,0.361 (0.096 to 1.360) 4
same,Risk Ratio (95% CI): Urate shift: normal to low (Day 1080),,0.474 (0.119 to 1.893) 3
same,Risk Ratio (95% CI): Urate shift: normal to low (Day 1440),,0.210 (0.046 to 0.973) 4
same,Risk Ratio (95% CI): Uric acid PCS High >7.5 mg/dL (Women),,1.180 (0.974 to 1.429) −1
same,Risk Ratio (95% CI): Uric acid PCS High >8.0 mg/dL (Men),,1.313 (1.183 to 1.458) −2
same,Risk Ratio (95% CI): Uric acid PCS Low <1.9 mg/dL (Women),,1.000 (0.063 to 15.986) −1
same,Risk Ratio (95% CI): Uric acid PCS Low <2.5 mg/dL (Men),,0.650 (0.324 to 1.305) 2
same,ARR,Bilirubin >1x ULN to 2x ULN,3.5%
same,NNT,Bilirubin >1x ULN to 2x ULN,−29
same,Risk Ratio (95% CI),Bilirubin >1x ULN to 2x ULN,3.157 (2.392 to 4.168) −4
same,ARR,Bilirubin >2x ULN to 3x ULN,0.2%
same,NNT,Bilirubin >2x ULN to 3x ULN,−497
same,Risk Ratio (95% CI),Bilirubin >2x ULN to 3x ULN,3.668 (1.024 to 13.136) −4
same,ARR,Bilirubin high (Day 120),2.4%
same,NNT,Bilirubin high (Day 120),−42
same,Risk Ratio (95% CI),Bilirubin high (Day 120),4.288 (2.849 to 6.454) −4
same,ARR,Bilirubin high (Day 360),2.0%
same,NNT,Bilirubin high (Day 360),−50
same,Risk Ratio (95% CI),Bilirubin high (Day 360),3.263 (2.203 to 4.832) −4
same,ARR,Bilirubin high (Day 720),2.6%
same,NNT,Bilirubin high (Day 720),−38
same,Risk Ratio (95% CI),Bilirubin high (Day 720),5.052 (3.174 to 8.039) −5
same,ARR,Bilirubin high (Day 1080),2.0%
same,NNT,Bilirubin high (Day 1080),−50
same,Risk Ratio (95% CI),Bilirubin high (Day 1080),2.430 (1.683 to 3.508) −3
same,ARR,Bilirubin high (Day 1440),2.5%
same,NNT,Bilirubin high (Day 1440),−40
same,Risk Ratio (95% CI),Bilirubin high (Day 1440),3.543 (2.243 to 5.596) −4
same,ARR,Bilirubin high (Day 1800),2.3%
same,NNT,Bilirubin high (Day 1800),−43
same,Risk Ratio (95% CI),Bilirubin high (Day 1800),2.670 (1.569 to 4.545) −4
same,ARR,[1],1.3%
same,NNT,[1],−77
same,Risk Ratio (95% CI),[1],5.106 (2.754 to 9.467) −5
same,ARR,[2],1.3%
same,NNT,[2],−80
same,Risk Ratio (95% CI),[2],5.431 (2.773 to 10.636) −5
same,ARR,[3],1.3%
same,NNT,[3],−76
same,Risk Ratio (95% CI),[3],4.803 (2.516 to 9.168) −4
same,ARR,[4],1.0%
same,NNT,[4],−95
same,Risk Ratio (95% CI),[4],2.235 (1.374 to 3.636) −3
same,ARR,[5],1.8%
same,NNT,[5],−57
same,Risk Ratio (95% CI),[5],5.445 (2.687 to 11.034) −5
same,ARR,[6],1.2%
same,NNT,[6],−81
same,Risk Ratio (95% CI),[6],2.556 (1.242 to 5.259) −4
same,Placebo-Adjusted % Change,Erythrocytes (Day 120),+.72%
same,Placebo-Adjusted % Change,Erythrocytes (Day 360),+.26%
same,Placebo-Adjusted % Change,Erythrocytes (Day 720),+.29%
same,Placebo-Adjusted % Change,Erythrocytes (Day 1080),+.43%
same,Placebo-Adjusted % Change,Erythrocytes (Day 1440),+.66%
same,ARR,Erythrocytes low (Day 120),−1.3%
same,NNT,Erythrocytes low (Day 120),77
same,Risk Ratio (95% CI),Erythrocytes low (Day 120),0.814 (0.685 to 0.968) 1
same,ARR,Erythrocytes low (Day 360),−0.4%
same,NNT,Erythrocytes low (Day 360),223
same,Risk Ratio (95% CI),Erythrocytes low (Day 360),0.932 (0.781 to 1.113) 1
same,ARR,Erythrocytes low (Day 720),−0.4%
same,NNT,Erythrocytes low (Day 720),251
same,Risk Ratio (95% CI),Erythrocytes low (Day 720),0.940 (0.779 to 1.133) 1
same,ARR,Erythrocytes low (Day 1080),−1.7%
same,NNT,Erythrocytes low (Day 1080),60
same,Risk Ratio (95% CI),Erythrocytes low (Day 1080),0.781 (0.642 to 0.950) 2
same,ARR,Erythrocytes low (Day 1440),−0.8%
same,NNT,Erythrocytes low (Day 1440),120
same,Risk Ratio (95% CI),Erythrocytes low (Day 1440),0.888 (0.720 to 1.093) 1
same,ARR,Erythrocytes low (Day 1800),−0.2%
same,NNT,Erythrocytes low (Day 1800),485
same,Risk Ratio (95% CI),Erythrocytes low (Day 1800),0.975 (0.756 to 1.258) 1
same,Placebo-Adjusted % Change,Hematocrit (Day 120),+.42%
